*1 amine or outer side, *2 acyl side, *3 side chain or, on linkers, in order; H or OH if unused. Where a SMILES comes first, the peptide text is derived from it. [ ]: non-standard residue; d: D form. The star is where a group is joined. NHBn(4-(4-Me-thiazol-5-yl)) = Cc1ncsc1-c1ccc(CN*)cc1; NHCH2(1,3-C6H4)CH2CO = O=C(Cc1cccc(CN[*:1])c1)[*:2]; F2Pmp = N[C@@H](Cc1ccc(C(F)(F)P(=O)(O)O)cc1)C(=O)O; Phenylacetyl(4-OH,3-OMe) = COc1cc(CC(=O)*)ccc1O; Benzoyl(3-Br,4-Me) = Cc1ccc(C(=O)*)cc1Br; X1 = Cc1ncsc1-c1ccc([C@H](C)N*)cc1; cisHyp = O=C(O)[C@@H]1C[C@H](O)CN1; Hyp = O=C(O)[C@@H]1C[C@@H](O)CN1; dHyp = O=C(O)[C@H]1C[C@H](O)CN1; dTle = CC(C)(C)[C@@H](N)C(=O)O; Tle = CC(C)(C)[C@H](N)C(=O)O; Cbz = O=C(OCc1ccccc1)*; Aoc = NCCCCCCCC(=O)O; Ahx = NCCCCCC(=O)O
Assays:
[1] = test system: compound 47-mediated PTP1B and TC-PTP degradation; test: Degradation mechanism verification in HEK293 cells (pretreatment with pathway blockers); type: cell-based; conditions: pretreatment then 100 nM compound 47 for 4 hours
Description: Cells were pre-treated with indicated concentration of MLN4924 (prevents ubiquitination), MG132 (blocks proteasome activity), lenalidomide (prevents CRBN binding) or (S,R,S)-AHPC-Me (prevents VHL binding) followed by 4 hours of treatment with compound 47 at 100 nM showing compound 47-mediated PTP1B/TC-PTP degradation depends on the ubiquitination-proteasome pathway. No degradation was observed when cells were treated with 100 nM cis-compound 47 (inactivated degrader) for 4 hours.
PROTAC-mediated protein degradation requires the obligatory formation of afunctional ternary complex of target protein-PROTAC-E3 ligase to enable target protein ubiquitination by the E3 ligase, followed by proteasomal degradation. The VHL E3 ligase dependency for compound 47 induced PTP1B and TC-PTP degradation was confirmed by preparing cis-isomer of compound 47 (cis-47) in which the VHL E3 ligand was replaced with (S,S,S)-AHPC-Me, an epimer of (S,R,S)-AHPC-Me with diminished affinity for VHL. […] Moreover, the addition of the VHL ligand (S,R,S)-AHPC-Me reduced the compound 47-mediated degradation of the two proteins (FIG. 6A). In contrast, pretreatment of the cell with lenalidomide, a ligand for cereblon (another E3 ligase commonly employed for PROTAC development), had no effect on compound 47-mediated PTP1B and TC-PTP degradation (FIG. 6A). […] The compound 47 mediated PTP1B and TC-PTP degradation and proteasome dependency were also verified by immunofluorescent imaging (FIGS. 6B and 6C).

pSTAT1 = test: STAT1 phosphorylation in IFN-γ stimulated HEK293 cells (western blot); type: cell-based; conditions: Homo sapiens; HEK293 cells, 16 hours, 20 ng/ml IFN-γ; read-out: EC50 of pSTAT1 activation
Description: Wild-type HEK293 cells were treated with compound 47 or ABBV-CLS-484 for 16 hours, and stimulated with 20 ng/ml IFN-γ to induce JAK-STAT signaling pathway activation.
Abbvie and Calico developed a potent PTP1B/TC-PTP inhibitor ABBV-CLS-484 (disclosed in International PCT application WO2019246513), and it is currently being evaluated as a treatment for locally advanced or metastatic tumors (NCT04777994).

TC-PTP [2] = molecular target: T1, TC-PTP (Homo sapiens, UniProt P17706); test: Degradation assay in HEK293 cells (immunoblotting); type: cell-based; parameters: Degradation assay was conducted in HEK293 cells with 1 μM degrader and 24 hours incubation; endogenous in cells; host or cells: HEK293; conditions: 1 μM degrader, 24 hours, read-out: % Protein Degradation TC-PTP
T1 sequence (P17706 1-415): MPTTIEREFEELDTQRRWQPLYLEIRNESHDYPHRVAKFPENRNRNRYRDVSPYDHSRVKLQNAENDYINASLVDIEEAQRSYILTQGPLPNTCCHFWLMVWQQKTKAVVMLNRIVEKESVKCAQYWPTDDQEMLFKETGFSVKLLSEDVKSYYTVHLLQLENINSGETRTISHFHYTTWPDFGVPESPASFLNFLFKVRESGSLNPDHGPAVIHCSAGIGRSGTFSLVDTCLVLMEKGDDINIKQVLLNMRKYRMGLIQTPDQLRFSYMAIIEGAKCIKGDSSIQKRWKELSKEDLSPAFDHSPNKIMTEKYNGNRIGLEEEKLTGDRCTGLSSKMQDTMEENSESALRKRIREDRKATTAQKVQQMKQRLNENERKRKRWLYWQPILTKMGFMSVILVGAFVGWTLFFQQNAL
Description: (§1) HEK293. MIAPaCa-2, HepG2, U2OS, H116, MEF, B16F10, and MC38 cells, were grown in DMEM, while Jurkat and H358 cells were grown in RPMI 1640 supplemented with 10% fetal bovine serum, penicillin (50 units/mL), and streptomycin (50 μg/mL) in a 37° C. incubator containing 5% CO2. 20 ng/ml human (Biolegend #713906) or mouse (Biolegend #714006) Interferon-γ were used for JAK/STAT pathway stimulation.
(§2) Tissues or cultured cells were lysed with ice-cold lysis buffer (50 mM Tris (pH 8.0, 150 mM NaCl, 10% Glycerol, 1% Triton-X-100) supplied with phosphatase inhibitor (Bimake) and protease inhibitor mixture (Roche Applied Science). Equal amounts of protein were resolved by SDS-PAGE, transferred to nitrocellulose membrane, and subjected to immunoblotting. Antibodies used in this study include anti-following proteins: pSTAT1^Tyr701 (Cell Signaling Technology #9167, 1:3000), GAPDH (Cell Signaling Technology #97166, 1:5000), pJAK1^Tyr1034/1035 (Cell Signaling Technology #74129, 1:1000), pJAK2^Tyr1007/1008 (Cell Signaling Technology #3776, 1:1000), TC-PTP (Abcam #ab180764, 1:3000). PTP1B (Abcam #ab244207, 1:1500).
(§3) Degradation assay was conducted in HEK293 cells with 1 μM degrader and 24 hours incubation.
(§4) The degradation assay was conducted in HEK293 cells with 0.2 μM degrader and 16 hours incubation.

PTP1B [3] = molecular target: T2, PTP1B (Homo sapiens, UniProt P18031); test: Degradation assay in HEK293 cells (immunoblotting); type: cell-based; parameters: Degradation assay was conducted in HEK293 cells with 1 μM degrader and 24 hours incubation; endogenous in cells; host or cells: HEK293; conditions: 1 μM degrader, 24 hours
T2 sequence (P18031 1-435): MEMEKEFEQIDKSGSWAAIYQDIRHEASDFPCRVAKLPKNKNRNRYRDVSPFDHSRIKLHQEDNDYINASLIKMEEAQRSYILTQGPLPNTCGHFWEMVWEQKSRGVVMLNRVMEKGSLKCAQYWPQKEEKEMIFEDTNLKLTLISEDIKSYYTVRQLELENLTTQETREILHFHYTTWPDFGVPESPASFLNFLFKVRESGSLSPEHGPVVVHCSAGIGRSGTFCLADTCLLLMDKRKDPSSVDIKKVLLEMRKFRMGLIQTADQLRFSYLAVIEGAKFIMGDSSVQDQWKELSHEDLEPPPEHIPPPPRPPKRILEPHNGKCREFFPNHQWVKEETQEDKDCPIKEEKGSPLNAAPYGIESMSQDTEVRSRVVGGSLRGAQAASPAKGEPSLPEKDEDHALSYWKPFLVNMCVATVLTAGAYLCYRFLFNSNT
Description: as §1, §2, §3, §4

TC-PTP [4] = molecular target: T1, TC-PTP; test: Degradation assay in HEK293 cells (immunoblotting); type: cell-based; parameters: endogenous in cells; host or cells: HEK293; conditions: 0.2 μM degrader, 16 hours, read-out: % Protein Degradation TC-PTP
PTP1B [5] = molecular target: T2, PTP1B; test: Degradation assay in HEK293 cells (immunoblotting); type: cell-based; parameters: endogenous in cells; host or cells: HEK293; conditions: 0.2 μM degrader, 16 hours
TC-PTP [6] = molecular target: T1, TC-PTP; test: PTP activity assay with pNPP substrate (IC50, Ki, mode of inhibition); type: biochemical; conditions: pNPP 2 mM, pH 7.0, 25° C.; read-out: IC50, nM TC-PTP
Procedure, shortened: (§5)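 Hydrolysis of pNPP measured spectrophotometrically in pH 7.0 DMG buffer (EDTA, NaCl, DTT, BSA) at 25 °C, 0.4 nM enzyme. IC50 at 2 mM pNPP (Km) over an inhibitor titration; mode of inhibition and Ki from rates across varied pNPP and inhibitor levels, fitted to enzyme kinetic models.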

PTP1B [7] = molecular target: T2, PTP1B; test: as above; type: biochemical; conditions: pNPP 2 mM, pH 7.0, 25° C.; read-out: IC50, nM PTP1B
Procedure, shortened: as §5

TC-PTP [8] = molecular target: T1, TC-PTP; test: Degradation assay in HEK293 cells (immunoblotting); type: cell-based; parameters: Degradation assay was conducted in HEK293 cells with 1 μM degrader and 24 hours incubation; endogenous in cells; host or cells: HEK293; conditions: 100 nM, 4 hours
PTP1B [9] = molecular target: T2, PTP1B; test: Degradation assay in HEK293 cells (immunoblotting); type: cell-based; parameters: Degradation assay was conducted in HEK293 cells with 1 μM degrader and 24 hours incubation; endogenous in cells; host or cells: HEK293; conditions: 100 nM, 4 hours

Structure (SMILES)	effect of pretreatment on compound 47-mediated PTP1B and TC-PTP degradation [1]	IC50 (TC-PTP [6])	IC50 (PTP1B [7])	also measured
Cc1ncsc1-c1ccc([C@H](C)NC(=O)[C@@H]2C[C@@H](O)CN2C(=O)[C@@H](N)C(C)(C)C)cc1 [(S,R,S)-AHPC-Me]	reduced			
CC(C)CCN[C@@H]1CCc2cc(O)c(N3CC(=O)NS3(=O)=O)c(F)c2C1 [ABBV-CLS-484, reference compound]				EC50 (pSTAT1): 79.7 nM
COc1cc(CC(=O)N[C@@H](Cc2ccccc2)C(=O)N[C@@H](Cc2ccc(C(F)(F)P(=O)(O)O)cc2)C(=O)N[C@@H](CCCCNC(=O)c2ccc(C)c(Br)c2)C(=O)NCCCCCC(=O)N[C@H](C(=O)N2C[C@H](O)C[C@H]2C(=O)NCc2ccc(-c3scnc3C)cc2)C(C)(C)C)ccc1O [Compound 8, ((4-((S)-3-(((S)-6-(3-bromo-4-methylbenzamido)-1-((6-(((S)-1-((2S,4R)-4-hydroxy-2-((4-(4-methylthiazol-5-yl)benzyl)carbamoyl)pyrrolidin-1-yl)-3,3-dimethyl-1-oxobutan-2-yl)amino)-6-oxohexyl)amino)-1-oxohexan-2-yl)amino)-2-((S)-2-(2-(4-hydroxy-3-methoxyphenyl)acetamido)-3-phenylpropanamido)-3-oxopropyl)phenyl)difluoromethyl)phosphonic Acid] ({Phenylacetyl(4-OH,3-OMe)}-F[F2Pmp]K(Benzoyl(3-Br,4-Me))[Ahx][Tle][Hyp]-{NHBn(4-(4-Me-thiazol-5-yl))})		12.8 ± 3.7 nM	16.7 ± 0.9 nM	percent TC-PTP degradation at 1 µM (TC-PTP [2]): 83%; % Protein Degradation PTP1B (PTP1B [3]): 81%; percent TC-PTP degradation at 0.2 µM (TC-PTP [4]): 58%; % Protein Degradation PTP1B (PTP1B [5]): 61%
COc1cc(CC(=O)N[C@@H](Cc2ccccc2)C(=O)N[C@@H](Cc2ccc(C(F)(F)P(=O)(O)O)cc2)C(=O)N[C@@H](CCCCNC(=O)c2ccc(C)c(Br)c2)C(=O)NCCCCCCCC(=O)N[C@@H](C(=O)N2C[C@@H](O)C[C@@H]2C(=O)NCc2ccc(-c3scnc3C)cc2)C(C)(C)C)ccc1O [Compound 83, ((4-((S)-3-(((S)-6-(3-bromo-4-methylbenzamido)-1-((8-(((R)-1-((2R,4S)-4-hydroxy-2-((4-(4-methylthiazol-5-yl)benzyl)carbamoyl)pyrrolidin-1-yl)-3,3-dimethyl-1-oxobutan-2-yl)amino)-8-oxooctyl)amino)-1-oxohexan-2-yl)amino)-2-((S)-2-(2-(4-hydroxy-3-methoxyphenyl)acetamido)-3-phenylpropanamido)-3-oxopropyl)phenyl)difluoromethyl)phosphonic Acid] ({Phenylacetyl(4-OH,3-OMe)}-F[F2Pmp]K(Benzoyl(3-Br,4-Me))[Aoc][dTle][dHyp]-{NHBn(4-(4-Me-thiazol-5-yl))})		10.6 ± 0.3 nM	19 ± 1.9 nM	percent TC-PTP degradation at 1 µM (TC-PTP [2]): 66%; % Protein Degradation PTP1B (PTP1B [3]): 58%
CC(C)C[C@@H](C=O)NC(=O)[C@H](CC(C)C)NC(=O)[C@H](CC(C)C)NC(=O)OCc1ccccc1 [MG-132] (Cbz-Leu-Leu-Leu-aldehyde)	markedly reduced			
NS(=O)(=O)OC[C@@H]1C[C@@H](n2ccc3c(N[C@H]4CCc5ccccc54)ncnc32)C[C@@H]1O [MLN-4924]	markedly reduced			
COc1cc(CC(=O)N[C@@H](Cc2ccccc2)C(=O)N[C@@H](Cc2ccc(C(F)(F)P(=O)(O)O)cc2)C(=O)N[C@@H](CCCCNC(=O)c2ccc(C)c(Br)c2)C(=O)NCc2cccc(CC(=O)N[C@H](C(=O)N3C[C@@H](O)C[C@H]3C(=O)N[C@@H](C)c3ccc(-c4scnc4C)cc3)C(C)(C)C)c2)ccc1O [cis-47] ({Phenylacetyl(4-OH,3-OMe)}-F[F2Pmp]K(Benzoyl(3-Br,4-Me))[NHCH2(1,3-C6H4)CH2CO][Tle][cisHyp]-X1)		29.7 ± 2.1 nM	25.1 ± 1.6 nM	TC-PTP degradation (TC-PTP [8]): failed to degrade; PTP1B degradation (PTP1B [9]): failed to degrade
Nc1cccc2c1CN(C1CCC(=O)NC1=O)C2=O (stereo not shown) [lenalidomide]	had no effect			

From patent publication US20260240878A1, “PTP1B/TC-PTP DUAL INHIBITORS AND PROTEIN DEGRADERS” (Purdue Research Foundation, priority 2023, published 2026)
